According to US20240279288A1, “APPLICATION OF PLANT JAZ PROTEINS AND DERIVED POLYPEPTIDES IN PREVENTION AND TREATMENT OF HUMAN AND ANIMAL TUMORS” (ANYANG INSTITUTE OF SINO-COTTON INDUSTRY INNOVATION, priority 2021, published 2024):

Experiments:
MCF7 cells = test: Detection of GhJAZ1 protein entry into the nucleus, fluorescence microscope; format: cell-based, human; conditions: 0.5 μM
Text: In order to explore how GhJAZ1 enters cancer cells, we cloned the genes of most tumor surface receptors, including uPAR (NCBI database accession number of NM_002659.4), CCK1R (NP_000721.1), CCK2R (NP_001350481.1), HER2 (NP_004439.2), GRPR (NP_005305.1), MUC1 (NP_001358649.1), VEGFR1 (NP_002010.2), Insulin receptor (NM_000208.4), NTR (XM_011528827.2), PSMA (XM_017017432.1), TFR1 (NM_001128148.3), TFR2 (NM_003227.4), PEPT1 (NM_005073.4), APN (NM_001150.3). The receptor proteins that interact with GhJAZ1 were then screened by yeast two hybrid (the steps of the experiment as Example 3). […] We detected the interaction of GhJAZ1 with uPA (as the ligand of uPAR, NCBI database accession number of NP_002649.2) and uPAR by yeast two hybrid (the steps of the experiment as Example 3). […] GhJAZ1+RFP (the amino acid sequence set forth in SEQ ID No. 81, corresponding encoding gene sequence set forth in SEQ ID No. 82) was ligated to pET-30a (+) vector (YouBio, Cat. No.: VT1212) between NdeI and HindIII, and GhJAZ1+RFP protein with red fluorescence was prokaryotically expressed and purified (the step of method as step 2 in Example 4) (A in FIG. 11), and then MCF7 cells were treated with GhJAZ1+RFP protein and observed by a fluorescence microscope.

[1] = test system: JA content of callus of cotton "CCRI 24"; test: JA content in cotton callus (HPLC); conditions: DIECA 200, 400, 800 μM or ibuprofen 20, 40, 80 μM in callus induction medium
Procedure: (§1) Explants from “CCRI 24” were cut to consistent length and placed under the same conditions for cultivation. After one month, the growth of callus was observed and photographed with a camera and microscope. Statistics on the weights of callus and measurement of JA content were performed.

[2] = test system: callus of cotton "CCRI 24"; test: Growth of cotton callus on medium with JA synthesis inhibitor; conditions: DIECA 200, 400, 800 μM or ibuprofen 20, 40, 80 μM in callus induction medium; hypocotyl explants
Procedure: as §1

[3] = test system: cell cycle-related genes of callus; test: Fluorescence quantitative PCR of cell cycle-related genes in cotton callus; conditions: DIECA 200, 400, 800 μM or ibuprofen 20, 40, 80 μM in callus induction medium
Procedure: Identification at the RNA level: RNA was extracted using RNA extraction kit (RNAprep Pure Polysaccharide Polyphenol Plant Total RNA Extraction Kit (DP441), manufacturer: TIANGEN BIOTECH (BEIJING) CO., LTD.), and then cDNA was obtained using two-step reverse transcription kit (a third-generation premix for two-step de-genomization and reverse transcription, Cat. No.: MR05201). cDNA as a template was added into a 96-well plate, with addition of SYBR®Green I chimeric dye (an antibody dye quantitative PCR premix, Cat. No.: MQ10101) and gene primers for three-step qPCR amplification. Finally, the relative gene expression was calculated based on the Ct value.
The steps of RNA extraction, reverse transcription, and fluorescence quantitative PCR were the same as above, and the sequences of primers were as follows: […]
as §1

Molecule	entry into the nucleus of MCF7 cells (red fluorescence merged with blue nuclear fluorescence) (MCF7 cells)	JA content of callus [1]	growth of callus of cotton [2]	cell cycle-related genes of callus [3]
GhJAZ1+RFP: GhJAZ1 fused with RFP, red fluorescence, amino acid sequence SEQ ID No. 81	entered the nucleus			
CCN(CC)C(=S)[S-].[Na+] [DIECA]		significantly decreased	significantly inhibit	marked changes
CC(C)Cc1ccc(C(C)C(=O)O)cc1 (stereo not shown) [ibuprofen]		significantly decreased	significantly inhibit	marked changes
